Assay results published in PubChem BioAssay AID1919008 (Molecular Pharmacology Branch, DTP, NCI, 2023).
Several values for one entry are separate records, joined by “and”; a condition that tells them apart may be missing. Equal values may be shown once.

System: DMS-114 complex spheroids with HUVEC/MSC, growth % test/control
Assay: Anticancer human tumor DMS-114 cell line growth inhibition [AhR];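 further: spheroids exposed to agents for 7 days before readout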;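 on viability, T/C: 100% = DMSO vehicle control wells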
Conditions: for viability, T/C: stronger effect = lower value
How it was run: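 Agents were dosed in half-log steps down from roughly clinical Cmax, or from 10 microM where Cmax was unknown, alone and with AhR antagonists. Read-out: percent test/control growth of tumor spheroids containing HUVEC and MSC stromal cells.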

[1] = curve of first compound, second compound 0.1 µM
[2] = curve of first compound, second compound 0.316 µM
[3] = curve of first compound, second compound 1 µM
[4] = curve of first compound, second compound 3.16 µM
[5] = curve of first compound, second compound 10 µM
[6] = second compound 0.1 µM, first compound 0.00949 µM
[7] = second compound 0.1 µM, first compound 0.03 µM
[8] = second compound 0.1 µM, first compound 0.0949 µM
[9] = second compound 0.1 µM, first compound 0.3 µM
[10] = second compound 0.316 µM, first compound 0.00949 µM
[11] = second compound 0.316 µM, first compound 0.03 µM
[12] = second compound 0.316 µM, first compound 0.0949 µM
[13] = second compound 0.316 µM, first compound 0.3 µM
[14] = second compound 1 µM, first compound 0.00949 µM
[15] = second compound 1 µM, first compound 0.03 µM
[16] = second compound 1 µM, first compound 0.0949 µM
[17] = second compound 1 µM, first compound 0.3 µM
[18] = second compound 3.16 µM, first compound 0.00949 µM
[19] = second compound 3.16 µM, first compound 0.03 µM
[20] = second compound 3.16 µM, first compound 0.0949 µM
[21] = second compound 3.16 µM, first compound 0.3 µM
[22] = second compound 10 µM, first compound 0.00949 µM
[23] = second compound 10 µM, first compound 0.03 µM
[24] = second compound 10 µM, first compound 0.0949 µM
[25] = second compound 10 µM, first compound 0.3 µM
[26] = second compound 0.1 µM, first compound 0.0316 µM
[27] = second compound 0.1 µM, first compound 0.1 µM
[28] = second compound 0.1 µM, first compound 0.316 µM
[29] = second compound 0.1 µM, first compound 1 µM
[30] = second compound 0.1 µM, first compound 3.16 µM
[31] = second compound 0.1 µM, first compound 10 µM
[32] = second compound 0.316 µM, first compound 0.0316 µM
[33] = second compound 0.316 µM, first compound 0.1 µM
[34] = second compound 0.316 µM, first compound 0.316 µM
[35] = second compound 0.316 µM, first compound 1 µM
[36] = second compound 0.316 µM, first compound 3.16 µM
[37] = second compound 0.316 µM, first compound 10 µM
[38] = second compound 1 µM, first compound 0.0316 µM
[39] = second compound 1 µM, first compound 0.1 µM
[40] = second compound 1 µM, first compound 0.316 µM
[41] = second compound 1 µM, first compound 1 µM
[42] = second compound 1 µM, first compound 3.16 µM
[43] = second compound 1 µM, first compound 10 µM
[44] = second compound 3.16 µM, first compound 0.0316 µM
[45] = second compound 3.16 µM, first compound 0.1 µM
[46] = second compound 3.16 µM, first compound 0.316 µM
[47] = second compound 3.16 µM, first compound 1 µM
[48] = second compound 3.16 µM, first compound 3.16 µM
[49] = second compound 3.16 µM, first compound 10 µM
[50] = second compound 10 µM, first compound 0.0316 µM
[51] = second compound 10 µM, first compound 0.1 µM
[52] = second compound 10 µM, first compound 0.316 µM
[53] = second compound 10 µM, first compound 1 µM
[54] = second compound 10 µM, first compound 3.16 µM
[55] = second compound 10 µM, first compound 10 µM

## CCc1c2c(nc3ccc(O)cc13)-c1cc3c(c(=O)n1C2)COC(=O)[C@]3(O)CC + Cc1cncc(-c2nc(NCCc3c[nH]c4ccccc34)c3ncn(C(C)C)c3n2)c1
[1]
  IC50: 2.07 nM
[2]
  IC50: 2.21 nM
[3]
  IC50: 2.02 nM
[4]
  IC50: 1.58 nM
[5]
  IC50: < 0.949 nM
Second compound 0.1 µM, first compound 0.000949 µM
  viability, T/C: 67.4%
Second compound 0.1 µM, first compound 0.003 µM
  viability, T/C: 41.6%
[6]
  viability, T/C: 21.9%
[7]
  viability, T/C: 13.8%
[8]
  viability, T/C: 12.6%
[9]
  viability, T/C: 12.5%
Second compound 0.316 µM, first compound 0.000949 µM
  viability, T/C: 69%
Second compound 0.316 µM, first compound 0.003 µM
  viability, T/C: 43.1%
[10]
  viability, T/C: 19.9%
[11]
  viability, T/C: 14.5%
[12]
  viability, T/C: 15.2%
[13]
  viability, T/C: 12.2%
Second compound 1 µM, first compound 0.000949 µM
  viability, T/C: 62.5%
Second compound 1 µM, first compound 0.003 µM
  viability, T/C: 43.5%
[14]
  viability, T/C: 20.7%
[15]
  viability, T/C: 15.5%
[16]
  viability, T/C: 9.97%
[17]
  viability, T/C: 14.7%
Second compound 3.16 µM, first compound 0.000949 µM
  viability, T/C: 62.9%
Second compound 3.16 µM, first compound 0.003 µM
  viability, T/C: 33.7%
[18]
  viability, T/C: 15%
[19]
  viability, T/C: 13.1%
[20]
  viability, T/C: 13%
[21]
  viability, T/C: 12.4%
Second compound 10 µM, first compound 0.000949 µM
  viability, T/C: 22.1%
Second compound 10 µM, first compound 0.003 µM
  viability, T/C: 17.4%
[22]
  viability, T/C: 9.92%
[23]
  viability, T/C: 8.3%
[24]
  viability, T/C: 9%
[25]
  viability, T/C: 6.26%

## Nc1ccccc1NC(=O)c1ccc(CNC(=O)OCc2cccnc2)cc1
Compound 0.0316 µM
  viability, T/C: 89.7% and 96.8% and 108%
Compound 0.1 µM
  viability, T/C: 85% and 94.1% and 92.8%
Compound 0.316 µM
  viability, T/C: 68% and 90.9% and 67.3%
Compound 1 µM
  viability, T/C: 37.8% and 74.1% and 40.4%
Compound 3.16 µM
  viability, T/C: 15.6% and 44% and 22.9%
Compound 10 µM
  viability, T/C: 8.33% and 24.4% and 14.5%
Curve of compound
  IC50: 627 nM and 2520 nM and 665 nM

## COc1cccc2c1C(=O)c1c(O)c3c(c(O)c1C2=O)CC(O)(C(=O)CO)CC3OC1CC(N)C(O)C(C)O1 (configuration not stated) + Cc1ccccc1N=Nc1ccc(NC(=O)c2ccnn2C)c(C)c1
[1]
  IC50: 81.6 nM
[2]
  IC50: 110 nM
[3]
  IC50: 107 nM
[4]
  IC50: 104 nM
[5]
  IC50: 98.4 nM
[26]
  viability, T/C: 71.6%
[27]
  viability, T/C: 44.9%
[28]
  viability, T/C: 17.1%
[29]
  viability, T/C: 1.65%
[30]
  viability, T/C: 0.32%
[31]
  viability, T/C: 0.78%
[32]
  viability, T/C: 75.5%
[33]
  viability, T/C: 52.5%
[34]
  viability, T/C: 19.4%
[35]
  viability, T/C: 1.84%
[36]
  viability, T/C: 0.33%
[37]
  viability, T/C: 1.22%
[38]
  viability, T/C: 71.4%
[39]
  viability, T/C: 51.8%
[40]
  viability, T/C: 18.3%
[41]
  viability, T/C: 2.28%
[42]
  viability, T/C: 0.52%
[43]
  viability, T/C: 0.56%
[44]
  viability, T/C: 71%
[45]
  viability, T/C: 50.7%
[46]
  viability, T/C: 19.3%
[47]
  viability, T/C: 1.97%
[48]
  viability, T/C: 0.59%
[49]
  viability, T/C: 0.61%
[50]
  viability, T/C: 68.7%
[51]
  viability, T/C: 48.8%
[52]
  viability, T/C: 21.6%
[53]
  viability, T/C: 1.61%
[54]
  viability, T/C: 0.52%
[55]
  viability, T/C: 0.7%

## NS(=O)(=O)OCC1CC(n2ccc3c(NC4CCc5ccccc54)ncnc32)CC1O (configuration not stated) + CC(CO)NC(=O)c1cc(-c2ccc(Cl)cc2)nn(-c2cnn(C)c2)c1=O
[1]
  IC50: < 31.6 nM
[2]
  IC50: 38.1 nM
[3]
  IC50: < 31.6 nM
[4]
  IC50: 33.3 nM
[5]
  IC50: < 31.6 nM
[26]
  viability, T/C: 39.8%
[27]
  viability, T/C: 35.6%
[28]
  viability, T/C: 16%
[29]
  viability, T/C: 11%
[30]
  viability, T/C: 7.57%
[31]
  viability, T/C: 6.46%
[32]
  viability, T/C: 53.4%
[33]
  viability, T/C: 32.2%
[34]
  viability, T/C: 17.7%
[35]
  viability, T/C: 9.64%
[36]
  viability, T/C: 8.09%
[37]
  viability, T/C: 6.7%
[38]
  viability, T/C: 47.9%
[39]
  viability, T/C: 35.5%
[40]
  viability, T/C: 16.3%
[41]
  viability, T/C: 12.2%
[42]
  viability, T/C: 7.56%
[43]
  viability, T/C: 7.46%
[44]
  viability, T/C: 50.6%
[45]
  viability, T/C: 34.8%
[46]
  viability, T/C: 17.8%
[47]
  viability, T/C: 11.7%
[48]
  viability, T/C: 8.81%
[49]
  viability, T/C: 6.82%
[50]
  viability, T/C: 49.4%
[51]
  viability, T/C: 40%
[52]
  viability, T/C: 18.3%
[53]
  viability, T/C: 10.8%
[54]
  viability, T/C: 8.39%
[55]
  viability, T/C: 8.61%

## Nc1ccn(C2OC(CO)C(O)C2(F)F)c(=O)n1 (configuration not stated) + Cc1cncc(-c2nc(NCCc3c[nH]c4ccccc34)c3ncn(C(C)C)c3n2)c1
[1]
  IC50: < 31.6 nM
[2]
  IC50: < 31.6 nM
[3]
  IC50: < 31.6 nM
[4]
  IC50: < 31.6 nM
[5]
  IC50: < 31.6 nM
[26]
  viability, T/C: 8.56%
[27]
  viability, T/C: 9.8%
[28]
  viability, T/C: 9.67%
[29]
  viability, T/C: 7.95%
[30]
  viability, T/C: 10.1%
[31]
  viability, T/C: 8.44%
[32]
  viability, T/C: 8.17%
[33]
  viability, T/C: 8.73%
[34]
  viability, T/C: 9.32%
[35]
  viability, T/C: 9.26%
[36]
  viability, T/C: 8.71%
[37]
  viability, T/C: 9.3%
[38]
  viability, T/C: 9.4%
[39]
  viability, T/C: 10.1%
[40]
  viability, T/C: 8.34%
[41]
  viability, T/C: 9.34%
[42]
  viability, T/C: 8.86%
[43]
  viability, T/C: 9.03%
[44]
  viability, T/C: 8.74%
[45]
  viability, T/C: 10.6%
[46]
  viability, T/C: 11.1%
[47]
  viability, T/C: 8.92%
[48]
  viability, T/C: 9.63%
[49]
  viability, T/C: 8.89%
[50]
  viability, T/C: 9.18%
[51]
  viability, T/C: 7.73%
[52]
  viability, T/C: 8.82%
[53]
  viability, T/C: 7.58%
[54]
  viability, T/C: 8.49%
[55]
  viability, T/C: 9.08%

## O=C(C=Cn1cnc(-c2cc(C(F)(F)F)cc(C(F)(F)F)c2)n1)NNc1cnccn1 + Cc1ccccc1N=Nc1ccc(NC(=O)c2ccnn2C)c(C)c1
[1]
  IC50: 827 nM
[2]
  IC50: 806 nM
[3]
  IC50: 906 nM
[4]
  IC50: 877 nM
[5]
  IC50: 987 nM
[6]
  viability, T/C: 111%
[7]
  viability, T/C: 114%
[8]
  viability, T/C: 124%
[9]
  viability, T/C: 93.4%
Second compound 0.1 µM, first compound 0.949 µM
  viability, T/C: 45%
Second compound 0.1 µM, first compound 3 µM
  viability, T/C: 18.2%
[10]
  viability, T/C: 95.8%
[11]
  viability, T/C: 125%
[12]
  viability, T/C: 127%
[13]
  viability, T/C: 89.1%
Second compound 0.316 µM, first compound 0.949 µM
  viability, T/C: 45.2%
Second compound 0.316 µM, first compound 3 µM
  viability, T/C: 17.4%
[14]
  viability, T/C: 100%
[15]
  viability, T/C: 124%
[16]
  viability, T/C: 144%
[17]
  viability, T/C: 91.6%
Second compound 1 µM, first compound 0.949 µM
  viability, T/C: 51.8%
Second compound 1 µM, first compound 3 µM
  viability, T/C: 20.6%
[18]
  viability, T/C: 99.7%
[19]
  viability, T/C: 110%
[20]
  viability, T/C: 124%
[21]
  viability, T/C: 88%
Second compound 3.16 µM, first compound 0.949 µM
  viability, T/C: 48.9%
Second compound 3.16 µM, first compound 3 µM
  viability, T/C: 21.9%
[22]
  viability, T/C: 98.5%
[23]
  viability, T/C: 91.5%
[24]
  viability, T/C: 95.5%
[25]
  viability, T/C: 75.6%
Second compound 10 µM, first compound 0.949 µM
  viability, T/C: 51.5%
Second compound 10 µM, first compound 3 µM
  viability, T/C: 30.4%
